Legend:
[1] = tested on: pooled cryopreserved hepatocytes; experiment: Metabolic stability in hepatocytes (mouse); assay type: in vitro ADME; details: 1 μM test compound
Method: 4.6. Metabolic Stability in Hepatocytes
The aim of this assay is to determine the metabolic stability of the compound in hepatocytes (cryopreserved) of different species. Low hepatocyte stability may result in the formation of unwanted metabolites, high clearance, and therefore is not desirable.
The decrease in parent was assessed by measuring the percentage remaining by LC-MS/MS analysis.
A 10 mM stock solution of test compound in DMSO was first diluted in DMSO to 3 mM, and then in modified Krebs-Henseleit buffer (Sigma, K3753) to 5 μM. This compound dilution was added to a suspension of pooled cryopreserved hepatocytes (BioreclamationIVT) at 37° C. under gentle shaking.
Final reaction conditions were: 1 μM of test compound, 0.03% DMSO, 0.5 million viable hepatocytes/mL, and 75 μL incubation volume.
Testosterone (1 μM) and 7-hydroxycoumarin (1 μM) were used, respectively as phase I and phase II metabolic reaction controls.
After 0, 10, 20, 45, 90, 120 and 180 min of incubation, the reaction was terminated with 225 μL of MeCN:MeOH (2:1) containing 100 ng/mL of diclofenac as analytical internal standard. Samples were mixed, centrifuged and the supernatant analyzed by LC-MS/MS.
The instrument responses (ratios of test compound and internal standard peak areas) were referenced to the zero time point samples (considered as 100%) in order to determine the percentage of compound remaining.
Plots of percentage compound remaining are used to determine the intrinsic clearance in the hepatocyte incubations using the following equations:
Scaled Clint[L/h/kg]=Clint[μL/min/10^6 cells]*#(10^6) cells/g liver*60*(1/10^6) Scaled Clint unbound [L/h/kg]=Clint [L/h/kg]/Fu,inc where: fu,inc equals hepatocyte binding, derived from microsomal binding (fu,mic) by following equation: […]

human IRAK-4 = target: T1, human IRAK-4 (Homo sapiens, UniProt Q9NWZ3); experiment: Phosphorylation IC50 determination for human IRAK-4 (ADP-Glo kinase assay); details: human IRAK-4, RIP140 substrate, Km ATP; read-out: IRAK4 ADPglo biochemical assay IC50
T1 construct: purchased Carna Biosciences 09 145
T1 sequence (Q9NWZ3 1-460): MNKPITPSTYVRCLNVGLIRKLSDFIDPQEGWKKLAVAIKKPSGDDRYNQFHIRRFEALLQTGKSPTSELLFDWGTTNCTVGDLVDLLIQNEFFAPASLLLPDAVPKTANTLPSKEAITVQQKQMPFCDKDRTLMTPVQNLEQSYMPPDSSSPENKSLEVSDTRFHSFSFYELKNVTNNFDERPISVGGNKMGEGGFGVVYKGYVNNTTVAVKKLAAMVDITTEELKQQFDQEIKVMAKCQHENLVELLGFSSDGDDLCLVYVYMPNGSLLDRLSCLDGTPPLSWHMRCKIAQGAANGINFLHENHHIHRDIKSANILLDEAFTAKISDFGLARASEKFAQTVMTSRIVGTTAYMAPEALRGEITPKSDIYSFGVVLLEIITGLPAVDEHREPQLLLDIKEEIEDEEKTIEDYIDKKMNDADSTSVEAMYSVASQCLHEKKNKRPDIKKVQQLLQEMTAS
Method: 3.1. Phosphorylation IC50 Determination for Human IRAK-4
The phosphorylation of the substrate RIP140 (SEQ ID1) by IRAK4 at Km ATP was detected with the ADP-Glo Kinase Assay (Promega, Cat #V9103), a luminescent kinase assay which measures the ADP formed from a kinase reaction. (Zegzouti et al. 2009) In a second step the kinase reaction was terminated and all the remaining ATP was depleted. In a final step the ADP was converted into ATP and this newly synthesized ATP was measured by using a luciferase/luciferin reaction with a luminescent reader. The luminescent signal positively correlated with kinase activity, in particular kinase inhibition giving a decrease of the luminescent signal.
For the semi-automated assay, the positive control (100% inhibition) was prepared by diluting 10 mM staurosporine stock mixture (20 μL) in water (3.8 mL) and DMSO (180 μL), thus resulting in a […] staurosporine solution at 1% DMSO (final concentration after further dilution in the kinase reaction).
For the automated assay, no pre-dilution of the 10 mM staurosporine stock was made. 10 mM staurosporine was spotted directly in the assay plate using acoustic dispensing and complemented with DMSO to result in a similar final concentration as mentioned above.
For the semi-automated assay, the negative control (0% inhibition) was prepared by mixing water (3.8 mL) and DMSO (200 μL) resulting in a final concentration of 1% DMSO after further dilution in the kinase reaction. For the automated assay no pre-dilution of DMSO was done. 100% DMSO was spotted directly on the assay plate.
The assay buffer solution was prepared at a concentration corresponding to 5 fold the final (most diluted) assay concentration by mixing a solution of 125 mM TRIS pH 7.5+0.05% Triton X-100+2.5 mM EGTA (5.27 mL) with 1M mgCl2 (72 μL), 1M DTT (57.6 μL), and 200 mM MnCl2 (360 μL).
For example, for the semi-automated method, the enzyme-substrate mixture was prepared by mixing water (3999 μL), assay buffer solution (1380 μL), 1 mM RIP140 (138 μL—SEQ ID1), and 200 ng/mL IRAK 4 (3.45 μL Carna Biosciences, 09 145).
For semi-automated method, the ATP mixture was prepared at a concentration corresponding to 2.5 fold the final (most diluted) assay concentration of the semi-automated method and 1.5 fold the final (most diluted) assay concentration of the automated method. For example, for the semi-automated method, the ATP mixture was prepared by mixing water (4126 μL), assay buffer solution (1380 μL), and 10 mM ATP (13.80 μL).
The assay was performed either in a semi-automated or fully automated manner. The assay volume and the incubation time of the ADP detection were different accordingly the method used.
3.1.3.1. Semi-Automated Assay
The compounds were prepared as a serial dilution of 10 point dose responses with 1/5 dilution steps in 100% DMSO starting from 2 mM highest concentration, diluted 1/20 in water. 1 μL was transferred dry to the assay plates.
On each assay plate 32 wells of each control (positive & negative) were added, followed by 2 μL enzyme-substrate mixture.
The reaction was started by adding 2 μL diluted ATP (final concentration Km ATP) on the assay plates. Plates were centrifuged for a few seconds at 1000 rpm followed by an incubation at r.t. for 120 min.
The reactions were stopped and the unconsumed ATP was depleted by adding 5 μL ADP-glo Reagent (Promega, Cat #V9103) to the reaction. The plates were quickly centrifuged at 1000 rpm and incubated at r.t. for 40 min corresponding to full ATP depletion.
The ADP was converted back to ATP and luciferase and luciferin were introduced to detect ATP by adding 10 μL kinase detection reagent (Promega, Cat #V9103) to the reaction. The plates were centrifuged for a few seconds at 1000 rpm and incubated at r.t. for a further 30 min.
Luminescent read out was performed on an Envision luminescent reader (Perkin Elmer). […]

Structure (SMILES)	Mouse (Perc. remaining at 90 min) [1]	IC50 (human IRAK-4)
[2H]C([2H])([2H])NC(=O)c1cc2nc(CCC(C)(C)O)cn2cc1NC(=O)c1cccc(C(F)(F)F)n1 [Compound 1, 2-(3-hydroxy-3-methyl-butyl)-N-(trideuteriomethyl)-6-[[6-(trifluoromethyl)pyridine-2-carbonyl]amino]imidazo[1,2-a]pyridine-7-carboxamide]	96.3%	0.1 to 5 nM
CNC(=O)c1cc2nc(CCC(C)(C)O)cn2cc1NC(=O)c1cccc(C(F)(F)F)n1 [Compound 2, 2-(3-hydroxy-3-methyl-butyl)-N-methyl-6-[[6-(trifluoromethyl)pyridine-2-carbonyl]amino]imidazo[1,2-a]pyridine-7-carboxamide]	103.4%	0.1 to 5 nM
COc1cc2nc(CCC(C)(C)O)cn2cc1NC(=O)c1cccc(C(F)(F)F)n1 [Compound 3, N-[2-(3-hydroxy-3-methyl-butyl)-7-methoxy-imidazo[1,2-a]pyridin-6-yl]-6-(trifluoromethyl)pyridine-2-carboxamide]	39.9%	0.1 to 5 nM
COc1cc2nc(CCC(C)(C)O)cn2cc1NC(=O)c1cccn(C)c1=O [Compound 4, N-[2-(3-hydroxy-3-methyl-butyl)-7-methoxy-imidazo[1,2-a]pyridin-6-yl]-1-methyl-2-oxo-pyridine-3-carboxamide]	87.75%	5 to 10 nM
COc1cc2nc(CCC(C)(C)O)cn2cc1NC(=O)c1cccn(C2CC2)c1=O [Compound 5, 1-cyclopropyl-N-[2-(3-hydroxy-3-methyl-butyl)-7-methoxy-imidazo[1,2-a]pyridin-6-yl]-2-oxo-pyridine-3-carboxamide]	100%	0.1 to 5 nM
COc1cc2nc(CCC(C)(C)O)cn2cc1NC(=O)c1cccc(C)n1 [Compound 6, N-[2-(3-hydroxy-3-methyl-butyl)-7-methoxy-imidazo[1,2-a]pyridin-6-yl]-6-methyl-pyridine-2-carboxamide]	4.5%	0.1 to 5 nM
COc1cc2nc(CCC(C)(C)O)cn2cc1NC(=O)c1cccc(C(F)F)n1 [Compound 7, 6-(difluoromethyl)-N-[2-(3-hydroxy-3-methyl-butyl)-7-methoxy-imidazo[1,2-a]pyridin-6-yl]pyridine-2-carboxamide]	26.4%	0.1 to 5 nM
COc1cccc(C(=O)Nc2cn3cc(CCC(C)(C)O)nc3cc2OC)n1 [Compound 8, N-[2-(3-hydroxy-3-methyl-butyl)-7-methoxy-imidazo[1,2-a]pyridin-6-yl]-6-methoxy-pyridine-2-carboxamide]	26.4%	0.1 to 5 nM
COc1cc2nc(CCC(C)(C)O)cn2cc1NC(=O)c1cccn(C(F)F)c1=O [Compound 12, 1-(difluoromethyl)-N-[2-(3-hydroxy-3-methyl-butyl)-7-methoxy-imidazo[1,2-a]pyridin-6-yl]-2-oxo-pyridine-3-carboxamide]	88.1%	5 to 10 nM
COc1cc2nc(CCC(C)(C)O)cn2cc1NC(=O)c1cccn(CC(F)(F)F)c1=O [Compound 13, N-[2-(3-hydroxy-3-methyl-butyl)-7-methoxy-imidazo[1,2-a]pyridin-6-yl]-2-oxo-1-(2,2,2-trifluoroethyl)pyridine-3-carboxamide]	109.5%	> 50 nM
COc1cc2nc(CCC(C)(C)O)cn2cc1NC(=O)c1cccn(C2CCC2)c1=O [Compound 18, 1-cyclobutyl-N-[2-(3-hydroxy-3-methyl-butyl)-7-methoxy-imidazo[1,2-a]pyridin-6-yl]-2-oxo-pyridine-3-carboxamide]	60.9%	0.1 to 5 nM
COc1cc2nc(CCC(C)(C)O)cn2cc1NC(=O)c1cccc(C(C)(F)F)n1 [Compound 20, 6-(1,1-difluoroethyl)-N-[2-(3-hydroxy-3-methyl-butyl)-7-methoxy-imidazo[1,2-a]pyridin-6-yl]pyridine-2-carboxamide]	75.2%	0.1 to 5 nM
CCn1cccc(C(=O)Nc2cn3cc(CCC(C)(C)O)nc3cc2OC)c1=O [Compound 23, 1-ethyl-N-[2-(3-hydroxy-3-methyl-butyl)-7-methoxy-imidazo[1,2-a]pyridin-6-yl]-2-oxo-pyridine-3-carboxamide]	89.65%	5 to 10 nM
COc1cc2nc(CCS(C)(=O)=O)cn2cc1NC(=O)c1cccc(C(F)(F)F)n1 [Compound 24, N-[7-methoxy-2-(2-methylsulfonylethyl)imidazo[1,2-a]pyridin-6-yl]-6-(trifluoromethyl)pyridine-2-carboxamide]	46%	0.1 to 5 nM
COc1cc2nc(CCS(C)(=O)=O)cn2cc1NC(=O)c1cccn(C2CC2)c1=O [Compound 25, 1-cyclopropyl-N-[7-methoxy-2-(2-methylsulfonylethyl)imidazo[1,2-a]pyridin-6-yl]-2-oxo-pyridine-3-carboxamide]	95.05%	0.1 to 5 nM
CCOc1c(NC(=O)c2cccn(C)c2=O)cn2cc(CCC(C)(C)O)nc2c1F [Compound 38, N-[7-ethoxy-8-fluoro-2-(3-hydroxy-3-methyl-butyl)imidazo[1,2-a]pyridin-6-yl]-1-methyl-2-oxo-pyridine-3-carboxamide]		5 to 10 nM
CCOc1c(NC(=O)c2cccn(C3CC3)c2=O)cn2cc(CCS(C)(=O)=O)nc2c1F [Compound 39, 1-cyclopropyl-N-[7-ethoxy-8-fluoro-2-(2-methylsulfonylethyl)imidazo[1,2-a]pyridin-6-yl]-2-oxo-pyridine-3-carboxamide]		5 to 10 nM

Reference: patent publication US20220194938A1, “NOVEL COMPOUNDS AND PHARMACEUTICAL COMPOSITIONS THEREOF FOR THE TREATMENT OF INFLAMMATORY DISORDERS” (GALAPAGOS NV, priority 2019, published 2022)
